Read-outs that look alike come from different tables or passages of the source. Marks after values point to notes of the source that are not given here.
Columns and labels:
[1] = system: KB-V1 (MDR1++); assay: Cell survival assay (SRB), KB-V1 (MDR1++); conditions: for IC50: Homo sapiens
[2] = system: HCT-15; assay: Cell survival assay (SRB), HCT-15; assay type: cell-based; conditions: Homo sapiens, HCT-15, 72 h, 3 days
Description: (§1) Cells lines with previously known mechanisms of resistance. […] Res. 8: 207-218,1996); KB-3-1 (parental derived from an epidermoid carcinoma), KB-8.5, KB-V1 (Akiyama S-I, Fojo A, Hanover J A, Pastan I, Gottesman M M. Isolation and genetic characterization of human KB cell lines resistant to multiple drugs. Somatic Cell Mol. Gen., 11: 117-126,1985; Shen D-W, Cardarelli C, Hwang J, Cornwell M, Richert N, Ishii S, Pastan I, Gottesman MM. […] J. Biol. Chem., 261: 7762-7770, 1986); and HL-60 (parental derived from human leukemia) and HL60/AR (McGrath T., Center M. S. Adriamycin resistance in HL60 cells in the absence of detectable P-glycoprotein. Biochem. Res. Commun., 145:1171-1176,1987); A549 and A549.EpoB40 (He L., Yang C.-P.H., Horwitz S. B. Mutations in p-tubulin map to domains involved in regulation of microtubule stability in epothilone-resistant cell lines. Molecular Cancer Therapeutics. 1: 3-10, 2001). HCT-15 human colon carcinoma and DLD-1 human colon carcinoma are obtained from American Tissue Culture Collection. The MX-1W carcinoma is a Wyeth variant orginally obtained as MX-1 breast carcinoma from the National Cancer Institute. Cell lines selected for resistance to Representative Example 129. KB-3-1 cells are selected for resistance to Example 129 by chronically exposing cells to increasing concentrations of Example 129.
(§2) 2.2. Cell Survival Assay: Standard Pharmacological Test Procedure. The concentration of candidate inhibitor required to inhibit 50% of cell growth (IC50) is done according to previously reported methods. […] Compounds are serially diluted into media as 2× stocks and 100 μl added to cells in duplicate. Compounds are incubated with cells for 3 days. At the end of the incubation period the sulforhodamine B (SRB) assay, which measures protein content as an assessment of cell survival, is performed as described previously (Skehan P, Storeng R, Scudiero D, Monks A, McMahon J, Vistica D, Warren J T, Bokesch H, Kenney S, Boyd MR. New calorimetric cytotoxicity assay for anticancer-drug screening. J Natl Cancer Inst 1990 Jul 4;82(13):1107-12) with some modification as follows. For KB-3-1 cells with 20% FCS, media is gently decanted and replaced with 200 μl of serum-free media mixed with cold 50% TCA for a final concentration of 10% TCA. The plates are incubated for 1 hr at 4° C., followed by washing 5 times in cold distilled water, then air dried overnight. The fixed cells are stained for 10 min with 80 μl of 0.04% SRB solution prepared in 1% glacial acetic acid. Stain is discarded and plates washed 5 times in 1% glacial acetic acid, then air-dried until completely dry. Stained cell product is dissolved in 150 μl of 10 mM Trizma Base and placed on a shaker for 20 minutes until fully dissolved. Absorbance is read on a Victor V multi-label plate reader (Perkin Elmer, Gaithersburg, Md.).

[3] = system: KM20; assay: Cell survival assay (SRB), KM20; assay type: cell-based; conditions: 72 h
Description: (§3) 2.2. Cell Survival Assay: Standard Pharmacological Test Procedure. […] Compounds are incubated with cells for 3 days.

[4] = system: Capan-1; assay: Cell survival assay (SRB), Capan-1; assay type: cell-based; conditions: Homo sapiens
Description: as §3

[5] = system: MX-1W; assay: Cell survival assay (SRB), MX-1W; assay type: cell-based; conditions: Homo sapiens, MX1W, 72 h, 3 days
Description: as §1, §2

[6] = system: HT-29; assay: Cell survival assay (SRB), HT-29; assay type: cell-based; conditions: Homo sapiens
Description: as §3

[7] = system: tumor cell lines; assay: cells; assay type: cell-based
Description: as §1, §2

[8] = system: A375; assay: Cell survival assay (SRB), A375; assay type: cell-based; conditions: Homo sapiens, A-375, 72 h
Description: as §3

[9] = system: 1A9; assay: Cell survival assay (SRB), 1A9; assay type: cell-based; conditions: Homo sapiens
Description: as §3

[10] = system: S1; assay: Cell survival assay (SRB), S1; assay type: cell-based; conditions: Homo sapiens
Description: as §1, §2

[11] = system: Panc1; assay: Cell survival assay (SRB), Panc1; assay type: cell-based; conditions: Homo sapiens, PANC-1, 72 h
Description: as §3

[12] = system: KB-PTX-15+099 tumor xenografts; assay: Growth of tumors in nude mice, KB-PTX-15+099 xenograft; conditions: days 1,8,15
[13] = system: HL60; assay: Cell survival assay (MTS), HL60; assay type: cell-based; conditions: Homo sapiens
[14] = system: human carcinoma xenografts; assay: Growth of tumors in nude mice, several xenograft models and tolerated dose; assay type: in vivo
Description: 2.4. Growth of Tumors in Nude Mice.

[15] = HL60/AR (MRP1) or S1-M1-3.2 (MXR)

CC(=O)O[C@H]1C(=O)[C@@]2(C)[C@H]([C@H](OC(=O)c3ccccc3)[C@]3(O)C[C@H](OC(=O)[C@H](O)[C@@H](NC(=O)c4ccccc4)c4ccccc4)C(C)=C1C3(C)C)[C@]1(OC(C)=O)CO[C@@H]1C[C@@H]2O [paclitaxel, reference compound]
IC50 ([1]; 72 h, KB-V1, 3 days, SRB, vehicle (DMSO), no MDR-1 inhibitor, mean of two experiments): > 3000 nM | IC50 ([1]; 72 h, read-out: IC50 + 5.0 uM MDR-1 inhibitor, KB-V1, 3 days, SRB, + 5.0 uM MDR-1 inhibitor (heptanenitrile), mean of two experiments): 15 nM | IC50 ([1]; read-out: KB-V1 (MDR1++) IC50, nM (N), KB-V1, high MDR1 expression, Table 3): 5480 ± 2780 nM | IC50 ([2]; HCT-15, colon, SRB staining, read-out: IC50): 438 ± 248 nM | IC50 ([2]; HCT-15, SRB, + 5.0 uM MDR-1 inhibitor (heptanenitrile of Table 2), read-out: IC50 + 5.0 uM MDR-1 inhibitor): 5 nM | IC50 ([2]; HCT-15, SRB, vehicle control (DMSO), no MDR-1 inhibitor, read-out: IC50): 479 nM | IC50 ([3]; KM20, colon, 3 days, SRB staining, read-out: IC50): 8.9 ± 1.9 nM | IC50 ([4]; 72 h, Capan-1, pancreatic, 3 days, SRB staining, read-out: IC50): 4 nM | IC50 ([5]; MX-1W, breast, SRB staining, read-out: IC50): 15.4 ± 2.9 nM | IC50 ([5]; MX-1W, SRB, + 5.0 uM 7-(6,7-dimethoxy-3,4-dihydro-1H-isoquinolin-2-yl)-2(3,4-dimethoxy-phenyl)-2-p-tolysulfanyl-heptanenitrile, read-out: IC50 + 5.0 uM MDR-1 inhibitor): 8.3 nM | IC50 ([5]; MX-1W, SRB, vehicle control (DMSO), no MDR-1 inhibitor, read-out: IC50): 138 nM | IC50 ([6]; 72 h, HT-29, colon, 3 days, SRB staining, read-out: IC50): 6.1 nM | IC50 ([7]; 34 tumor cell lines (Example 129); N=31 cell lines (paclitaxel); read-out: mean IC50): 80.2 nM | IC50 ([7]; 34 tumor cell lines (Example 129); N=31 cell lines (paclitaxel); read-out: median IC50): 9 nM | IC50 ([7]; 34 tumor cell lines (Example 129); N=31 cell lines (paclitaxel); read-out: range of IC50): 1.8 to 1590 nM | IC50 ([7]; 72 h, average over the panel of tumor cell lines of Table 1; 3 days; read-out: AVERAGE IC50): 80.2 nM | resistance detected in cells over-expressing MRP1 or MXR [7, 15]: no resistance | IC50 ([7]; MX-1W, NCI-H1299, DLD-1, HCT-15; read-out: IC50 in cell lines expressing moderate to very high MDR1): 15 to 438 nM | IC50 ([7]; NCI-H838, A549, HT-29, HCT-116, KB-3-1; read-out: IC50 in cell lines with undetectable or low level MDR1): 3.9 to 8.8 nM | IC50 ([8]; A375, melanoma, 3 days, SRB staining, read-out: IC50): 14.1 ± 7.3 nM | IC50 ([9]; 72 h, 1A9, ovarian, 3 days, SRB staining, read-out: IC50): 5.1 ± 0.9 nM | IC50 ([10]; 72 h, S1, colon, 3 days, SRB staining, read-out: IC50): 92 ± 100 nM | IC50 ([10]; S1 parental, Table 5, read-out: S1 IC50, nM (N)): 92 ± 100 nM | IC50 ([11]; Panc1, pancreatic, 3 days, SRB staining, read-out: IC50): 28.9 nM | % T/C on day 6 ([12]; paclitaxel 60 mg/kg IV): 103% | % T/C on day 9 ([12]; paclitaxel 60 mg/kg IV): 93% | % T/C on day 13 ([12]; paclitaxel 60 mg/kg IV): 89% | % T/C on day 16 ([12]; paclitaxel 60 mg/kg IV): 87% | % T/C on day 20 ([12]; paclitaxel 60 mg/kg IV): 90% | IC50 ([13]; HL-60, 72 h, HL60, leukemia, 3 days, MTS assay, read-out: IC50): 1.8 nM | IC50 ([13]; HL-60, HL60 parental, Table 5, read-out: HL60 IC50, nM (N)): 1.8 nM | response of tumors ([14]; DLD-1, MX-1W or HCT-15 tumors, at or near the MTD): no response

CN[C@H](C(=O)N[C@H](C(=O)N(C)[C@H](/C=C(\C)C(=O)O)C(C)C)C(C)(C)C)C(C)(C)c1ccccc1 [Example 129, N,β,β-trimethyl-L-phenylalanyl-N^1-[(1S,2E)-3-carboxy-1-isopropylbut-2-enyl]-N^1,3-dimethyl-L-valinamide]
RR, relative resistance [1]: 81 | Ratio KBV1/KB [1]: 80.6 | resistance of KB-V1 cells [1]: 81 fold | IC50 ([1]; 72 h): 57 nM | IC50 ([1]; 72 h, read-out: IC50 + 5.0 uM MDR-1 inhibitor): 1.3 nM | IC50 ([1]; read-out: KB-V1 (MDR1++) IC50, nM (N)): 77.4 nM | IC50 ([2]; HCT-15, colon, SRB staining): 4.2 ± 2.5 nM | IC50 ([2]; HCT-15, SRB, vehicle control (DMSO), no MDR-1 inhibitor): 2.2 nM | IC50 ([2]; read-out: IC50 + 5.0 uM MDR-1 inhibitor, HCT-15, SRB, + 5.0 uM MDR-1 inhibitor (heptanenitrile of Table 2)): 0.5 nM | IC50 [3]: 1.8 ± 0.6 nM | IC50 ([4]; CAPAN-1, 72 h): 1.4 nM | IC50 ([5]; MX-1W, breast, SRB staining): 1.8 ± 0.6 nM | IC50 ([5]; MX-1W, SRB, vehicle control (DMSO), no MDR-1 inhibitor): 1.4 nM | IC50 ([5]; read-out: IC50 + 5.0 uM MDR-1 inhibitor, MX-1W, SRB, + 5.0 uM 7-(6,7-dimethoxy-3,4-dihydro-1H-isoquinolin-2-yl)-2(3,4-dimethoxy-phenyl)-2-p-tolysulfanyl-heptanenitrile): 1.3 nM | IC50 ([6]; HT-29, 72 h): 1.6 nM | IC50 ([7]; 72 h, read-out: AVERAGE IC50 (nM), average over the panel of tumor cell lines of Table 1; 3 days): 2.1 ± 1.7 nM | resistance detected in cells over-expressing MRP1 or MXR [7, 15]: no resistance | IC50 ([7]; read-out: IC50 in cell lines expressing moderate to very high MDR1, MX-1W, NCI-H1299, DLD-1, HCT-15): 1.1 to 6.8 nM | IC50 ([7]; read-out: IC50 in cell lines with undetectable or low level MDR1, NCI-H838, A549, HT-29, HCT-116, KB-3-1): 0.7 to 1.6 nM | IC50 ([7]; read-out: mean IC50, 34 tumor cell lines (Example 129); N=31 cell lines (paclitaxel)): 2.1 ± 1.7 nM | IC50 ([7]; read-out: median IC50, 34 tumor cell lines (Example 129); N=31 cell lines (paclitaxel)): 1.7 nM | IC50 ([7]; read-out: range of IC50, 34 tumor cell lines (Example 129); N=31 cell lines (paclitaxel)): 0.2 to 7.3 nM | IC50 ([7]; read-out: range of IC50; 34 tumor cell lines (Example 129); N=31 cell lines (paclitaxel)): 0.2 to 7 nM | IC50 [8]: 1.1 ± 0.8 nM | IC50 ([9]; 1A9, 72 h): 0.56 ± 0.09 nM | IC50 ([10]; 72 h): 3.7 ± 2 nM | IC50 ([10]; read-out: S1 IC50, nM (N)): 3.7 ± 2 nM | IC50 [11]: 2.9 ± 0.1 nM | % T/C on day 6 ([12]; Example 129 1.25 mg/kg IV): 32** % | % T/C on day 9 ([12]; Example 129 1.25 mg/kg IV): 19** % | % T/C on day 13 ([12]; Example 129 1.25 mg/kg IV): 9** % | % T/C on day 16 ([12]; Example 129 1.25 mg/kg IV): 10** % | % T/C on day 20 ([12]; Example 129 1.25 mg/kg IV): 7** % | IC50 ([13]; HL-60, 72 h): 0.21 ± 0.05 nM | IC50 ([13]; HL-60, read-out: HL60 IC50, nM (N)): 0.212 ± 0.048 nM | inhibition of tumor growth ([14]; tumors derived from DLD-1, MX-1W or HCT-15): 60-95%

Source: US20040121965A1, “Method of treating resistant tumors” (Wyeth Holdings Corporation, priority 2002, published 2004)
